According to patent publication US6355799B1, “Substituted benzene compounds, process for their preparation, and herbicidal and defoliant compositions containing them” (ISK Americas Incorporated, priority 1997, dated 2002):

What was measured:
Type in all cases: in vivo
[1] = tested on: redroot pigweed (Amaranthus retroflexus, AMARE); assay: Pre-emerge test, greenhouse herbicide activity screening; details: rating scale 0-100, 14 days after application
Procedure, shortened: (§1)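 Visual ratings on a 0-100 scale (0 no damage, 100 all plants dead) were taken at 14 days after treatment. Rates of 15-1000 g ai/ha in acetone, 187 l/ha, were sprayed onto soil one day after planting (pre-emerge) or onto 2-3 leaf plants with 0.25% v/v surfactant (post-emerge).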

[2] = tested on: barnyardgrass (Echinochloa crus-galli, ECHCG); assay: as above; details: rating scale 0-100, 14 days after application
Procedure, shortened: (§2)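 Rating: 0–100 visual injury, 14 DAA. Application: acetone, 187 l/ha, 15–1000 g ai/ha, flat-fan track sprayer with nozzle 40–45 cm above soil or canopy. Post-emerge runs used 0.25% v/v surfactant on 2–3 leaf plants.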

[3] = tested on: green foxtail (Setaria viridis, SETVI); assay: as above; details: rating scale 0-100, 14 days after application
Procedure, shortened: as §2

[4] = tested on: ivyleaf morningglory (Ipomoea hederacea, IPOHE); assay: as above; details: rating scale 0-100, 14 days after application
Procedure, shortened: as §2

[5] = tested on: johnsongrass (Sorghum halepense, SORHA); assay: as above; details: rating scale 0-100, 14 days after application
Procedure, shortened: as §2

[6] = tested on: lambsquarters (Chenopodium album, CHEAL); assay: as above; details: rating scale 0-100, 14 days after application
Procedure, shortened: as §2

[7] = tested on: large crabgrass (Digitaria sanguinalis, DIGSA); assay: as above; details: rating scale 0-100, 14 days after application
Procedure, shortened: as §2

[8] = tested on: sicklepod (Cassia obtusifolia, CASOB); assay: as above; details: rating scale 0-100, 14 days after application
Procedure, shortened: as §2

[9] = tested on: velvetleaf (Abutilon theophrasti, ABUTH); assay: as above; details: rating scale 0-100, 14 days after application
Procedure, shortened: as §2

[10] = tested on: field corn (Zea mays L., var. Dekalb 535, CORN); assay: Pre-emerge test, crop safety; details: rating scale 0-100, 14 days after application
Procedure, shortened: as §1

[11] = tested on: upland rice (Oryza sp., var. Tebonnet, RICE); assay: Pre-emerge test, crop safety; details: rating scale 0-100, 14 days after application
Procedure, shortened: as §1

[12] = tested on: barnyardgrass (Echinochloa crus-galli, ECHCG); assay: Post-emerge test, greenhouse herbicide activity screening; details: rating scale 0-100 (0 no damage, 100 complete death), 14 days after application
Procedure, shortened: (§3)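 Each test used a mechanized track sprayer delivering 187 l/ha of acetone solution at 15–1000 g ai/ha. Post-emerge foliage at 2–3 leaves was treated with added 0.25% v/v non-ionic surfactant and bottom-watered only. Injury was assessed on day 14, where 100 means total kill.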

[13] = tested on: green foxtail (Setaria viridis, SETVI); assay: as above; details: rating scale 0-100 (0 no damage, 100 complete death), 14 days after application
Procedure, shortened: as §3

[14] = tested on: ivyleaf morningglory (Ipomoea hederacea, IPOHE); assay: as above; details: rating scale 0-100 (0 no damage, 100 complete death), 14 days after application
Procedure, shortened: as §3

[15] = tested on: johnsongrass (Sorghum halepense, SORHA); assay: as above; details: rating scale 0-100 (0 no damage, 100 complete death), 14 days after application
Procedure, shortened: as §3

[16] = tested on: lambsquarters (Chenopodium album, CHEAL); assay: as above; details: rating scale 0-100 (0 no damage, 100 complete death), 14 days after application
Procedure, shortened: as §3

[17] = tested on: large crabgrass (Digitaria sanguinalis, DIGSA); assay: as above; details: rating scale 0-100 (0 no damage, 100 complete death), 14 days after application
Procedure, shortened: as §3

[18] = tested on: redroot pigweed (Amaranthus retroflexus, AMARE); assay: as above; details: rating scale 0-100 (0 no damage, 100 complete death), 14 days after application
Procedure, shortened: as §3

[19] = tested on: sicklepod (Cassia obtusifolia, CASOB); assay: as above; details: rating scale 0-100 (0 no damage, 100 complete death), 14 days after application
Procedure, shortened: as §3

[20] = tested on: velvetleaf (Abutilon theophrasti, ABUTH); assay: as above; details: rating scale 0-100 (0 no damage, 100 complete death), 14 days after application
Procedure, shortened: as §3

[21] = tested on: field corn (Zea mays L., var. Dekalb 535, CORN); assay: Post-emerge test, crop safety; details: rating scale 0-100 (0 no damage, 100 complete death), 14 days after application
Procedure, shortened: (§4)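 Plants grown in 10 cm pots of sandy loam mix received acetone-dissolved compounds through a moving flat-fan nozzle. Doses ranged from 15 to 1000 g ai/ha. Pre-emerge pots were seeded one day earlier, post-emerge pots 8–21 days earlier. Fourteen days on, each pot was graded 0–100 for damage.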

[22] = tested on: upland rice (Oryza sp., var. Tebonnet, RICE); assay: Post-emerge test, crop safety; details: rating scale 0-100 (0 no damage, 100 complete death), 14 days after application
Procedure, shortened: as §4

C#CCOC(=O)C(Cl)Cc1c(OC)c(Cl)cc(F)c1-n1c(=O)cc(C(F)(F)F)n(C)c1=O (single isomer, unassigned) [14-20]
Pre-emerge herbicidal activity, phytotoxicity rating AMARE ([1]; 63 g ai/ha): 50 | Pre-emerge herbicidal activity, phytotoxicity rating AMARE ([1]; 250 g ai/ha): 100 | Pre-emerge herbicidal activity, phytotoxicity rating ECHCG ([2]; 63 g ai/ha): 0 | Pre-emerge herbicidal activity, phytotoxicity rating ECHCG ([2]; 250 g ai/ha): 40 | Pre-emerge herbicidal activity, phytotoxicity rating SETVI ([3]; 63 g ai/ha): 0 | Pre-emerge herbicidal activity, phytotoxicity rating SETVI ([3]; 250 g ai/ha): 30 | Pre-emerge herbicidal activity, phytotoxicity rating IPOHE ([4]; 63 g ai/ha): 0 | Pre-emerge herbicidal activity, phytotoxicity rating IPOHE ([4]; 250 g ai/ha): 0 | Pre-emerge herbicidal activity, phytotoxicity rating SORHA ([5]; 63 g ai/ha): 0 | Pre-emerge herbicidal activity, phytotoxicity rating SORHA ([5]; 250 g ai/ha): 20 | Pre-emerge herbicidal activity, phytotoxicity rating CHEAL ([6]; 63 g ai/ha): 0 | Pre-emerge herbicidal activity, phytotoxicity rating CHEAL ([6]; 250 g ai/ha): 80 | Pre-emerge herbicidal activity, phytotoxicity rating DIGSA ([7]; 63 g ai/ha): 0 | Pre-emerge herbicidal activity, phytotoxicity rating DIGSA ([7]; 250 g ai/ha): 90 | Pre-emerge herbicidal activity, phytotoxicity rating CASOB ([8]; 63 g ai/ha): 0 | Pre-emerge herbicidal activity, phytotoxicity rating CASOB ([8]; 250 g ai/ha): 0 | Pre-emerge herbicidal activity, phytotoxicity rating ABUTH ([9]; 63 g ai/ha): 0 | Pre-emerge herbicidal activity, phytotoxicity rating ABUTH ([9]; 250 g ai/ha): 90 | Pre-emerge phytotoxicity rating, crop damage CORN ([10]; 63 g ai/ha): 0 | Pre-emerge phytotoxicity rating, crop damage CORN ([10]; 250 g ai/ha): 50 | Pre-emerge phytotoxicity rating, crop damage RICE ([11]; 63 g ai/ha): 0 | Pre-emerge phytotoxicity rating, crop damage RICE ([11]; 250 g ai/ha): 0 | Post-emerge Herbicidal Activity, phytotoxicity rating ECHCG ([12]; Rate 63 g ai/ha): 100 | Post-emerge Herbicidal Activity, phytotoxicity rating ECHCG ([12]; Rate 250 g ai/ha): 100 | Post-emerge Herbicidal Activity, phytotoxicity rating SETVI ([13]; Rate 63 g ai/ha): 0 | Post-emerge Herbicidal Activity, phytotoxicity rating SETVI ([13]; Rate 250 g ai/ha): 50 | Post-emerge Herbicidal Activity, phytotoxicity rating IPOHE ([14]; Rate 63 g ai/ha): 50 | Post-emerge Herbicidal Activity, phytotoxicity rating IPOHE ([14]; Rate 250 g ai/ha): 70 | Post-emerge Herbicidal Activity, phytotoxicity rating SORHA ([15]; Rate 63 g ai/ha): 10 | Post-emerge Herbicidal Activity, phytotoxicity rating SORHA ([15]; Rate 250 g ai/ha): 90 | Post-emerge Herbicidal Activity, phytotoxicity rating CHEAL ([16]; Rate 63 g ai/ha): 80 | Post-emerge Herbicidal Activity, phytotoxicity rating CHEAL ([16]; Rate 250 g ai/ha): 100 | Post-emerge Herbicidal Activity, phytotoxicity rating DIGSA ([17]; Rate 63 g ai/ha): 100 | Post-emerge Herbicidal Activity, phytotoxicity rating DIGSA ([17]; Rate 250 g ai/ha): 100 | Post-emerge Herbicidal Activity, phytotoxicity rating AMARE ([18]; Rate 63 g ai/ha): 95 | Post-emerge Herbicidal Activity, phytotoxicity rating AMARE ([18]; Rate 250 g ai/ha): 100 | Post-emerge Herbicidal Activity, phytotoxicity rating CASOB ([19]; Rate 63 g ai/ha): 0 | Post-emerge Herbicidal Activity, phytotoxicity rating CASOB ([19]; Rate 250 g ai/ha): 50 | Post-emerge Herbicidal Activity, phytotoxicity rating ABUTH ([20]; Rate 63 g ai/ha): 99 | Post-emerge Herbicidal Activity, phytotoxicity rating ABUTH ([20]; Rate 250 g ai/ha): 100 | Post-emerge phytotoxicity rating CORN (crop damage) ([21]; Rate 63 g ai/ha): 0 | Post-emerge phytotoxicity rating CORN (crop damage) ([21]; Rate 250 g ai/ha): 80 | Post-emerge phytotoxicity rating RICE (crop damage) ([22]; Rate 63 g ai/ha): 0 | Post-emerge phytotoxicity rating RICE (crop damage) ([22]; Rate 250 g ai/ha): 10
